We go through 87 compounds from a melting point compilation (Tetko et al.; mined from patent text by program, amines drawn as free bases though some values may be those of a salt).

As usually defined, the melting point is the temperature of the solid-liquid transition. For the compound `O=c1oc2c3ccccc3ccc2c2occc12`, the melting point lay within 198 to 200 °C.

Take `COC(=O)[C@H](C)NC(=O)CCCN(C(=O)c1ccc(Cl)cc1)c1c(C)cccc1C`: the melting point fell in the range of 91 to 92 °C.

For the compound `O=c1[nH]c2cc(Cl)ccc2c(O)c1SC/C=C\c1ccccc1`, the melting point was > 300 °C.

For `CCn1c(=O)c2[nH]c(/C=C/c3cccc(C(F)(F)F)c3)nc2n(CC)c1=O`, the melting point is > 270 °C.

For `CS(=O)(=O)c1cccc(NC(=O)c2cnn3c(C4CC4)cc(-c4ccc(Cl)cc4)nc23)c1`, the melting point lay within 235 to 238 °C.

Take `N#Cc1cnn(-c2ccc(Cl)cc2Cl)c1C(F)(F)F`: the melting point lay within 83 to 85 °C.

For the compound `CC(=O)Nc1ccc(CNc2n[nH]c(N=CN(C)C)c2C#N)cc1`, the melting point was in the range of 206 to 211 °C.

Take `COC(=O)Cc1c(C)n(O)c(=O)c2ccccc12`: the melting point lay in the range of 185 to 190 °C.

On to `O=C(O)CC1CCCN(C(=O)c2ccc(NC(=O)COc3ccccc3)cc2)c2ccccc21` (configuration not stated), for which the melting point fell in the range of 102 to 106 °C.

In the case of `CCN(Cc1ccccc1)C(=O)Cn1c2cccc(OCc3ccccc3)c2c2c(COC)c(C(=O)OC(C)C)ncc21`, the melting point lay in the range of 142 to 144 °C.

`Cc1c[nH]c2cccc(C3CCCNC3)c12` (configuration not stated) showed a melting point of 150 °C.

For `Nc1ccccc1Cn1[nH]c2ccccc2c1=O`, the melting point is 204 to 205 °C.

For the compound `Cc1c(-c2ccccc2)c(C2=CC(N(C)C)CC2)c2oc(C3CC3)nc2c1C#N` (configuration not stated), the melting point is 144 to 146 °C.

Consider `CCNc1nnc2ccc(-c3cccc(N(CC)C(=O)CC)c3)nn12`, for which the melting point was in the range of 164 to 166 °C.

The compound `CC(C)(C)OC(=O)N(CCCc1ccc(Cl)cc1)C1CCCC1N` (configuration not stated) gave a melting point of 95.3 to 111 °C.

Take `N#CSc1cc(C(=O)O)cc([N+](=O)[O-])c1C(=O)c1ccccc1`: the melting point was 184 °C.

Turning to `CCOC(=O)N1C=CC2=NC(C)=NC(N(C)c3ccccc3)N21` (configuration not stated), the melting point was 202 °C.

Regarding `Cc1c2c(nn1CCO)c(N)nc1ccccc12`, the melting point was 226 to 228 °C.

For `Cc1c(C#N)[nH]n(-c2ccc(Cl)c(Cl)c2)c1=O`, the melting point came to 210 °C.

In turn, `CC(=O)OC1CSC(Sc2ccc(C#N)cc2)C(OC(C)=O)C1OC(C)=O` (configuration not stated) registered a melting point of 155 °C.

`Cc1ccccc1C=C(C#N)C#N` displayed a melting point of 105 to 106 °C.

Consider `CCOC(=O)c1cc2c(OCC3CO3)cc(C)cc2[nH]1` (configuration not stated), for which the melting point is 173 to 175 °C.

In the case of `COc1cc2ncnc(N3CCN(C(=S)NCc4ccc(Br)cc4)CC3)c2cc1OC`, the melting point was 217 to 218 °C.

As to `O=Cc1ccc(-c2nc3ccccn3n2)cc1`, the melting point lay within 246 to 247 °C.

Compound `O=C(c1cccnc1)c1ccc2c(c1)CN1C=CNC1=N2` gave a melting point of 275 °C.

As to `CC(=O)OCC1c2c(c3ccccc3c3ccccc23)-c2c1c1ccccc1c1ccccc21`, the melting point lay in the range of 209 to 210 °C.

In the case of `CCCCC(=O)Nc1cc(C(=O)N2CCOCC2)ccn1`, the melting point was 110 to 112 °C.

For `N#Cc1c(N2CCN(C(=O)c3cccs3)CC2)c2cccnc2n(Cc2ccc(F)cc2)c1=O`, the melting point is 271 °C.

Regarding `CCONC(=O)c1cc(NC(C)=C2C(=O)OC(=O)C(C(C)=O)=C2O)cc(C(=O)NOCC)c1`, the melting point was 234 to 235 °C.

As to `COc1cccc(C=C2NC(=O)NC2=O)c1OCCc1ccccc1`, the melting point fell in the range of 199 to 201 °C.

Consider `O=C1NCCc2[nH]c3ccc(F)cc3c21`, for which the melting point lay within 242 to 245 °C.

The compound `O=C(O)/C(=C/c1ccc(OCc2ccccc2)cc1OCc1ccccc1)NC(=O)c1ccccc1` yielded a melting point of 149 to 150 °C.

Compound `COc1ccc(N(Cc2cccc3ccccc23)c2ccccc2)cc1` came in with a melting point of 154 to 159 °C.

The compound `CC(C)(C)[C@@H]1OC(=O)[C@@H]2[C@H]1C2(C)C` came in with a melting point of 113 °C.

`COC(=O)C1CC2C3CCc4cc(O)ccc4C3CCC2(C)C1=O` (configuration not stated) came in with a melting point of 215 to 217 °C.

`CC(C)COc1ccc(-c2ccc3nnn(Cc4ccc5ncccc5c4)c3n2)cc1F` displayed a melting point of 115 to 157 °C.

`N#CCNC(=O)COc1ccc(Cl)cc1Cl` showed a melting point of 107 to 108 °C.

Take `O=C(CCc1ccc([N+](=O)[O-])cc1)c1c(O)c2cccnc2n(-c2ccccc2)c1=O`: the melting point is 215 to 217 °C.

`C=CCN1C2CCC3C1CCC2N3C(c1ccc(C(=O)N2CCCC2)cc1)c1cccc(O)c1` (configuration not stated) showed a melting point of 140 to 142 °C.

Consider `O=C1c2ccc(O)cc2C(=O)C1c1ccc(O)cc1` (configuration not stated), for which the melting point was 227 to 228 °C.

On to `CCCOc1ccc(S(=O)(=O)N2CCN(C)CC2)cc1-c1nc2cc(N)c([N+](=O)[O-])cc2c(=O)[nH]1`, for which the melting point lay within 270 to 271 °C.

`CC1(C)CC(NCCNCCNC2CC(C)(C)N(O)C(C)(C)C2)CC(C)(C)N1O` returned a melting point of 118 to 124 °C.

As to `CC(=O)Nc1cccc(NC(=O)NC2N=C(c3ccccc3F)c3ccccc3N(CC(=O)N3CC4CCC(CC4)C3)C2=O)c1` (racemic), the melting point lay in the range of 207 to 215 °C.

Turning to `Cc1nc(-n2ccc(OCc3ccccc3)cc2=O)sc1C(=O)NCc1ccccc1`, the melting point was in the range of 219 to 220 °C.

Turning to `CC(C(=O)NCC(F)(F)C(F)(F)F)C(=O)NC1C(=O)Nc2cc(F)ccc2OC1C` (configuration not stated), the melting point was 215 to 216 °C.

As to `COc1cc2c(cn1)OCC21C(=O)N(CC2CCOCC2)c2ccccc21` (configuration not stated), the melting point was in the range of 84 to 85 °C.

With `COc1ccc(-c2cc(C(=O)O)cc3ccc4c(c23)OCO4)cc1`, the melting point is 264 to 266 °C.

As to `COc1ccc(-c2nc(CNC(=O)NC(C)C)sc2-c2ccc(OC)cc2)cc1`, the melting point was 146 to 149 °C.

On to `CN(C(=O)Cn1c(-c2ccc(Cl)cc2)nc2cccnc21)c1ccccc1`, for which the melting point is 170 to 171 °C.

In turn, `Cc1cc(C(=O)N(O)C2CCCCC2)c(C)o1` returned a melting point of 135 to 137 °C.

`CC1(C)CCC(C)(C)c2cc(-c3cc4ccc(C(=O)O)cc4o3)ccc21`: the melting point came to 280 °C.

In the case of `CCN(C)C1=NS(=O)(=O)c2cc(Cl)ccc2N1`, the melting point was > 220 °C.

Regarding `COc1ccc(-c2cc(=O)n(C(C)C)nc2-c2ccc(OC)cc2)cc1`, the melting point was in the range of 128 to 129 °C.

`Cc1cn2cccc(OCc3c(Cl)ccc(S(=O)(=O)N4CCC[C@H]4C(=O)NCCCNC(=O)c4ccc(C=NN)cc4)c3Cl)c2n1` returned a melting point of 120 to 125 °C.

As for `Cc1cc(C2(C(F)(F)F)CC(c3ccc(F)cc3)=NO2)ccc1N` (configuration not stated), the melting point was in the range of 108 to 110 °C.

`CCOC(=O)c1c(OCc2ccccc2)cc(C(F)(F)F)nc1C(F)(F)F` registered a melting point of 56 to 58.5 °C.

On to `COc1ccc(C=Cc2cc(F)c(OC)c(OC)c2)cc1O`, for which the melting point was in the range of 86 to 87 °C.

In the case of `C#CCN1C(=O)C(=O)N(c2cc(Cl)ccc2C)C1=S`, the melting point lay in the range of 162 to 164 °C.

In turn, `CCCSc1cc2c(c3c1OC(C)(C)C3)C(c1cccc(C(=O)OCC)c1)=NC(C)(C)C2` displayed a melting point of 83 to 84 °C.

`CCOC(=O)c1ccc(-c2nc(O)c(C)s2)cc1` registered a melting point of 207 to 208 °C.

`COc1cc(OCc2ccccn2)ccc1/C=C/C(=O)CC(=O)/C=C/c1cc2ccccc2s1` showed a melting point of 188 °C.

The compound `CCN1CCc2ccc(Nc3ncc(Cl)c(NCCNS(C)(=O)=O)n3)cc2CC1` came in with a melting point of 146 °C.

Compound `CC1(C)CN(CCN2CCN(c3cccc(Cl)c3)C2=O)C1` came in with a melting point of 84 to 85 °C.

Take `C[C@@H]1c2onc(-c3ccc(Cl)cc3)c2CC[C@H]1C(=O)O` (relative stereo): the melting point is 183 to 186 °C.

`CC=CCn1c(C)c(C)c2cnnc(OCc3ccc(OC(F)F)cc3)c21` gave a melting point of 109 to 110 °C.

Compound `CS(=O)(=O)c1ccc(C(CC2CCCC2)C(=O)Nc2ccccn2)cc1F` (configuration not stated) returned a melting point of 76 to 79 °C.

`CC(=NNC(=N)N)c1sc(-c2ccc(C3CCCCC3)cc2)nc1C` showed a melting point of 273 to 276 °C.

`COCCN(CCOC)c1nc(C)[nH]c2c(-c3ccc(Cl)cc3Cl)nc(C)c1-2`: the melting point fell in the range of 74 to 75 °C.

The compound `CCC(O)(c1ccc(OCc2ccccc2)cc1)c1cccc(C(F)(F)F)c1` (configuration not stated) returned a melting point of 50 to 51 °C.

In the case of `Oc1cc2ccccc2c(Br)c1O`, the melting point was in the range of 98 to 102 °C.

Take `COc1cc(OC)c2c(C)cc(=O)[nH]c2c1`: the melting point was 239 to 240 °C.

Take `COC(=O)c1cn(Cc2ccc(OCc3nc(-c4ccccc4)oc3C)cc2)nc1C(C)C`: the melting point lay within 90 to 91 °C.

In turn, `CN1C(=O)CC[C@]2(C)c3ccc(-c4c(F)cccc4F)cc3CC[C@@H]12` showed a melting point of 125 to 130 °C.

`CCCCCCCCCCc1nnnn1CC(=O)O` registered a melting point of 104 to 106 °C.

For `COc1c2c(cc3ccc(=O)oc13)CC(OC)O2` (configuration not stated), the melting point lay in the range of 131 to 132 °C.

Turning to `O=C(CCO)N1c2ccccc2CCC1CN1CCN(c2cccc3[nH]ccc23)CC1` (configuration not stated), the melting point is 58 to 61 °C.

`CC12CCC3c4cc(OCC(F)(F)F)c(O)cc4CCC3C1CCC2O` (configuration not stated): the melting point fell in the range of 167 to 168 °C.

Consider `CCCc1c(O)cccc1Oc1ccccc1C#N`, for which the melting point lay in the range of 103 to 107 °C.

Compound `CCNc1nc(C)c(-c2ccnc(Nc3ccc(N4CCN(C(C)=O)CC4)cc3)n2)s1` registered a melting point of 208 to 209 °C.

Take `O=C1[C@H]2CCCC[C@H]2C(=O)N1Cc1ccncc1`: the melting point fell in the range of 91 to 92 °C.

Consider `CCC1Cc2cc(OCC(=O)O)c(C)c(C)c2C1=O` (configuration not stated), for which the melting point is 206 °C.

`Cn1cc(-c2cc3cccnc3[nH]2)c2cc(OC3(C(N)=O)CCC3)ccc21` came in with a melting point of 267 to 268 °C.

For the compound `Cc1cccc(NC(=O)NCC(=O)N2[C@@H](C(=O)OC(C)(C)C)C[C@@H](C#N)[C@H]2c2ccccc2)c1` (racemic), the melting point worked out at 150 °C.

On to `O=C1N(N2CCOCC2)c2ccccc2C1(Cc1ccccc1)Cc1ccccc1`, for which the melting point was in the range of 179 to 180 °C.

Compound `CCn1c2ccccc2c2cc(/C=C(\C#N)c3cccnc3)ccc21` displayed a melting point of 131 to 133 °C.

Regarding `Cc1ccc2c(Cl)ccnc2c1NC(=O)c1c(Cl)cccc1Cl`, the melting point is 202 to 205 °C.

`O=C1OC(COc2ccccc2)CN1CCCOc1ccc(CC2SC(=O)N(C(c3ccccc3)(c3ccccc3)c3ccccc3)C2=O)cc1` (configuration not stated) had a melting point of 70 to 73 °C.
